Where two headings read alike, the source gives them in different places. Where a SMILES comes first, the peptide text is derived from it. Bridges are numbered along the chain shown (N, C = ends). [ ]: non-standard residue; d: D form. The star is where a group is joined. hPhe(3,5-F2-4-CF3) = N[C@@H](CCc1cc(F)c(C(F)(F)F)c(F)c1)C(=O)O; hPhe(3-Cl-4-CF3) = N[C@@H](CCc1ccc(C(F)(F)F)c(Cl)c1)C(=O)O; NPrPhe(4-CF3) = CCCN[C@@H](Cc1ccc(C(F)(F)F)cc1)C(=O)O; Piperazinyl(4-(3-oxetanyl)) = C1OCC1N1CCN(*)CC1; Morpholine(3S-CO) = O=C(O)[C@@H]1COCCN1; NMeGly(cPent) = CN[C@H](C(=O)O)C1CCCC1; Pro(4,4-Me2) = CC1(C)CN[C@H](C(=O)O)C1; Ac4c(3,3-F2) = NC1(C(=O)O)CC(F)(F)C1; NMeD = CN[C@@H](CC(=O)O)C(=O)O; NMeL = CN[C@@H](CC(C)C)C(=O)O; Morpholide = C1CN(*)CCO1; NMeA = CN[C@@H](C)C(=O)O; Ac5c = NC1(C(=O)O)CCCC1; Aze = O=C(O)[C@@H]1CCN1; Sar = CNCC(=O)O
Assays:
[1] = molecular target: GDP-bound HRAS wild-type protein (Homo sapiens, UniProt P01112); experiment: Binding to HRAS by surface plasmon resonance (SPR), Single Cycle Kinetics; conditions: for HRAS/KRAS (ratio of KD value for HRAS to KD value for KRAS) / HRAS/KRAS (ratio of KD value with respect to HRAS to KD value with respect to KRAS): SPR, GDP-bound HRAS wild-type protein vs GDP-bound KRAS wild-type protein
Chain of GDP-bound HRAS wild-type protein (P01112 whole entry): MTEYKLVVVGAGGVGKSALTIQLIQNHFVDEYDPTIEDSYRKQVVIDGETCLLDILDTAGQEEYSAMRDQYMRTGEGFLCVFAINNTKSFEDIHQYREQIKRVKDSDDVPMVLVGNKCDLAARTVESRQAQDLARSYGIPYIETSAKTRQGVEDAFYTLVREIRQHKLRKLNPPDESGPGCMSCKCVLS

[2] = molecular target: GDP-bound KRAS wild-type protein (Homo sapiens, UniProt P01116); experiment: Binding to KRAS by surface plasmon resonance (SPR), Single Cycle Kinetics; conditions: GDP-bound KRAS wild-type protein, read-out: KRAS KD
Chain of GDP-bound KRAS wild-type protein (P01116 whole entry): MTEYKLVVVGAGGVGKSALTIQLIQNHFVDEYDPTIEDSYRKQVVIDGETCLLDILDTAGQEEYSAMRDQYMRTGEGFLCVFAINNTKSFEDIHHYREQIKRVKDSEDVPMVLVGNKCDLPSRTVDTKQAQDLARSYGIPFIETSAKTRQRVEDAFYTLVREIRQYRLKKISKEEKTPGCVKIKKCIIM

[3] = molecular target: GDP-bound NRAS wild-type protein (Homo sapiens, UniProt P01111); experiment: Binding to NRAS by surface plasmon resonance (SPR), Single Cycle Kinetics; conditions: for NRAS/KRAS (ratio of KD value for NRAS to KD value for KRAS) / NRAS/KRAS (ratio of KD value with respect to NRAS to KD value with respect to KRAS): SPR, GDP-bound NRAS wild-type protein vs GDP-bound KRAS wild-type protein
Chain of GDP-bound NRAS wild-type protein (P01111 whole entry): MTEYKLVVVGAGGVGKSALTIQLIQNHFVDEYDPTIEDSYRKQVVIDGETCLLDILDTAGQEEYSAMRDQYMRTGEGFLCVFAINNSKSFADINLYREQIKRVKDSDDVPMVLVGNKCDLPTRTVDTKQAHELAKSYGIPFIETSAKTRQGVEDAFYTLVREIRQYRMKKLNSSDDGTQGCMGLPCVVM

[4] = SPR Single Cycle Kinetics, 1:1 binding model

SMILES	HRAS/KRAS (ratio of KD value for HRAS to KD value for KRAS) [1]	NRAS/KRAS (ratio of KD value for NRAS to KD value for KRAS) [3]	Kd [2, 4] [nM]	HRAS/KRAS (ratio of KD value with respect to HRAS to KD value with respect to KRAS) [1]	NRAS/KRAS (ratio of KD value with respect to NRAS to KD value with respect to KRAS) [3]	also measured
CCO[C@@H]1C[C@H]2C(=O)NC3(CCC3)C(=O)N(C)[C@@H](C3CCCC3)C(=O)N(C)[C@H](C(=O)N(C)C)CC(=O)N(C)[C@@H](CC)C(=O)N[C@@H]([C@@H](C)CC)C(=O)N3CCSC[C@H]3C(=O)N(C)[C@H]3C/C=C\CCN(C3=O)[C@@H](Cc3ccc(C(F)(F)F)cc3)C(=O)N(C)CC(=O)N[C@@H](CCc3cc(F)c(C(F)(F)F)c(F)c3)C(=O)N2C1 [PP1060]	A (a compound having 10 or more and less than 20 is denoted as A)	A (a compound having 10 or more and less than 20 is denoted as A)	–	–	–	Kd ([2]; SPR, Single Cycle Kinetics): 2.6 nM
CCO[C@@H]1C[C@H]2C(=O)NC3(CCC3)C(=O)N(C)[C@@H](C3CCCC3)C(=O)N(C)[C@H](C(=O)N(C)C)CC(=O)N(C)[C@@H](CC3CCCC3)C(=O)N[C@@H]([C@@H](C)CC)C(=O)N(C)CC(=O)N(C)[C@H]3C/C=C\CCN(C3=O)[C@@H](Cc3ccc(C)cc3)C(=O)N(C)CC(=O)N[C@@H](CCc3cc(Cl)c(C(F)(F)F)c(Cl)c3)C(=O)N2C1 [PP2679]	–	–	0.099	–	–	HRAS/KRAS (ratio of KD value with respect to GDP-bound HRAS wild-type protein to KD value with respect to KRAS) ([1]; SPR KD ratio HRAS/KRAS, class symbols): A (a compound having 10 or more and less than 20 is denoted as A); NRAS/KRAS (ratio of KD value with respect to GDP-bound NRAS wild-type protein to KD value with respect to KRAS) ([3]; SPR KD ratio NRAS/KRAS, class symbols): A (a compound having 10 or more and less than 20 is denoted as A)
CCO[C@@H]1C[C@H]2C(=O)NC3(CC(C)(C)C3)C(=O)N(C)[C@@H](C(CC)CC)C(=O)N(C)[C@H](C(=O)N(C)C)CC(=O)N(C)[C@@H](CC3CC3)C(=O)N[C@@H]([C@@H](C)CC)C(=O)N(C)CC(=O)N(C)[C@H]3C/C=C\CCN(C3=O)[C@@H](Cc3ccc(C(F)(F)F)cc3)C(=O)N(C)CC(=O)N[C@@H](CCc3ccc(C(F)(F)F)c(Cl)c3)C(=O)N2C1 [PP2124]	A (a compound having 10 or more and less than 20 is denoted as A)	AA (a compound having 20 or more is denoted as AA)	–	–	–	Kd ([2]; SPR, Single Cycle Kinetics): 0.26 nM
CCCN1C(=O)CN(C)C(=O)CN(C)C(=O)[C@H]([C@@H](C)CC)NC(=O)[C@H](CC(C)C)N(C)C(=O)C[C@@H](C(=O)N2CCN(C3COC3)CC2)N(C)C(=O)[C@H](C2CCCC2)N(C)C(=O)C2(CCCC2)NC(=O)[C@@H]2CCCN2C(=O)[C@H](CCc2ccc(C(F)(F)F)c(Cl)c2)NC(=O)CN(C)C(=O)[C@@H]1Cc1ccc(C(F)(F)F)cc1 [PP0175] ([NMeL]I[Sar][Sar][NPrPhe(4-CF3)][Sar][hPhe(3-Cl-4-CF3)]P[Ac5c][NMeGly(cPent)][NMeD]-{Piperazinyl(4-(3-oxetanyl))}; lactam N-11)	B (a compound having 3 or more and less than 10 is denoted as B)	B (a compound having 3 or more and less than 10 is denoted as B)	0.35	–	–	–
CCC[C@H]1C(=O)N[C@@H](C2CCCC2)C(=O)N(C)CC(=O)N(C)[C@H]2C/C=C\CCN(C2=O)[C@@H](Cc2ccc(C(F)(F)F)cc2)C(=O)N(C)CC(=O)N[C@@H](CCc2ccc(C(F)(F)F)c(Cl)c2)C(=O)N2CC3(CC3)C[C@H]2C(=O)NC2(CC(C)(C)C2)C(=O)N(C)[C@@H](CC(C)(C)C)C(=O)N(C)[C@H](C(=O)N(C)C)CC(=O)N1C [PP2981]	A (a compound having 10 or more and less than 20 is denoted as A)	AA (a compound having 20 or more is denoted as AA)	–	–	–	Kd ([2]; SPR, Single Cycle Kinetics): 0.31 nM
CC[C@H](C)[C@@H]1NC(=O)[C@H](CC2CC2)N(C)C(=O)C[C@@H](C(=O)N(C)CC)N(C)C(=O)[C@H](C2CCCC2)N(C)C(=O)C2(CC(C)(C)C2)NC(=O)[C@@H]2C[C@@H](F)CN2C(=O)[C@H](CCc2cc(F)c(C(F)(F)F)c(F)c2)NC(=O)CN(C)C(=O)[C@H](Cc2ccc(C(F)(F)F)cc2)N2CC/C=C\C[C@@H](C2=O)N(C)C(=O)CN(C)C1=O [PP1570]	–	–	–	–	–	HRAS/KRAS (ratio of KD value for HRAS to KD value for KRAS) ([1]; KD ratio class): A (a compound having 10 or more and less than 20 is denoted as A); Kd ([2]; SPR, Single Cycle Kinetics, 1:1 binding model): 0.051 nM; NRAS/KRAS (ratio of KD value for NRAS to KD value for KRAS) ([3]; KD ratio class): AA (a compound having 20 or more is denoted as AA)
CCCN1C(=O)CN(C)C(=O)CN(C)C(=O)[C@H]([C@@H](C)CC)NC(=O)[C@H](CC(C)C)N(C)C(=O)C[C@@H](C(=O)N(C)C)N(C)C(=O)[C@H](C2CCCC2)N(C)C(=O)C2(CCCC2)NC(=O)[C@@H]2CCCN2C(=O)[C@H](CCc2cc(F)c(C(F)(F)F)c(F)c2)NC(=O)CN(C)C(=O)[C@@H]1Cc1ccc(C(F)(F)F)cc1 [PP0788] ([NMeL]I[Sar][Sar][NPrPhe(4-CF3)][Sar][hPhe(3,5-F2-4-CF3)]P[Ac5c][NMeGly(cPent)][NMeD]-NMe2; lactam N-11)	–	–	0.054	C (A compound having a KD ratio of 0.1 or more and less than 3 is denoted as C)	B (a compound having 3 or more and less than 10 is denoted as B)	–
CCO[C@@H]1C[C@H]2C(=O)NC3(CCC3)C(=O)N(C)[C@@H](C3CCCC3)C(=O)N(C)[C@H](C(=O)N(C)C)CC(=O)N(C)[C@@H](CC(C)(C)C)C(=O)N[C@@H]([C@@H](C)CC)C(=O)N(C)CC(=O)N(C)[C@H]3CCCCN(C3=O)[C@@H](Cc3ccc(C(F)(F)F)cc3)C(=O)N(C)CC(=O)N[C@@H](CCc3cc(F)c(C(F)(F)F)c(F)c3)C(=O)N2C1 [PP0699]	–	–	0.036	C (A compound having a KD ratio of 0.1 or more and less than 3 is denoted as C)	C (A compound having a KD ratio of 0.1 or more and less than 3 is denoted as C)	–
CCCN1C(=O)[C@@H]2CCN2C(=O)CN(C)C(=O)[C@H]([C@@H](C)CC)NC(=O)[C@H](CC(C)C)N(C)C(=O)C[C@@H](C(=O)N2CCOCC2)N(C)C(=O)[C@H](C2CCCC2)N(C)C(=O)C2(CC(F)(F)C2)NC(=O)[C@@H]2CCCN2C(=O)[C@H](CCc2cc(F)c(C(F)(F)F)c(F)c2)NC(=O)CN(C)C(=O)[C@@H]1Cc1ccc(C(F)(F)F)cc1 [PP0802] ([NMeL]I[Sar][Aze][NPrPhe(4-CF3)][Sar][hPhe(3,5-F2-4-CF3)]P[Ac4c(3,3-F2)][NMeGly(cPent)][NMeD]-Morpholide; lactam N-11)	–	–	0.082	B (a compound having 3 or more and less than 10 is denoted as B)	C (A compound having a KD ratio of 0.1 or more and less than 3 is denoted as C)	–
CCCN1C(=O)[C@@H]2CCN2C(=O)CN(C)C(=O)[C@H]([C@@H](C)CC)NC(=O)[C@H](CC(C)C)N(C)C(=O)C[C@@H](C(=O)N2CCOCC2)N(C)C(=O)[C@H](C2CCCC2)N(C)C(=O)C2(CCCC2)NC(=O)[C@@H]2CC(C)(C)CN2C(=O)[C@H](CCc2ccc(C(F)(F)F)c(Cl)c2)NC(=O)CN(C)C(=O)[C@@H]1Cc1ccc(C(F)(F)F)cc1 [PP0456] ([NMeL]I[Sar][Aze][NPrPhe(4-CF3)][Sar][hPhe(3-Cl-4-CF3)][Pro(4,4-Me2)][Ac5c][NMeGly(cPent)][NMeD]-Morpholide; lactam N-11)	–	–	0.07	C (A compound having a KD ratio of 0.1 or more and less than 3 is denoted as C)	C (A compound having a KD ratio of 0.1 or more and less than 3 is denoted as C)	–
CC[C@H](C)[C@@H]1NC(=O)[C@H](CC(C)C)N(C)C(=O)C[C@@H](C(=O)N2CCOCC2)N(C)C(=O)[C@H](C2CCCC2)N(C)C(=O)C2(CCCC2)NC(=O)[C@@H]2CCCN2C(=O)[C@H](CCc2ccc(C(F)(F)F)c(Cl)c2)NC(=O)CN(C)C(=O)[C@H](Cc2ccc(C(F)(F)F)cc2)N2CC/C=C\C[C@@H](C2=O)N(C)C(=O)CN(C)C1=O [PP0463]	–	–	0.54	A (a compound having 10 or more and less than 20 is denoted as A)	A (a compound having 10 or more and less than 20 is denoted as A)	–
CCCN1C(=O)[C@@H]2CCN2C(=O)[C@H](C)N(C)C(=O)[C@H]([C@@H](C)CC)NC(=O)[C@H](CC(C)C)N(C)C(=O)C[C@@H](C(=O)N2CCOCC2)N(C)C(=O)[C@H](C2CCCC2)N(C)C(=O)C2(CCCC2)NC(=O)[C@@H]2COCCN2C(=O)[C@H](CCc2ccc(C(F)(F)F)c(Cl)c2)NC(=O)CN(C)C(=O)[C@@H]1Cc1ccc(C(F)(F)F)cc1 [PP0286] ([NMeL]I[NMeA][Aze][NPrPhe(4-CF3)][Sar][hPhe(3-Cl-4-CF3)][Morpholine(3S-CO)][Ac5c][NMeGly(cPent)][NMeD]-Morpholide; lactam N-11)	B (a compound having 3 or more and less than 10 is denoted as B)	C (A compound having a KD ratio of 0.1 or more and less than 3 is denoted as C)	0.52	–	–	–

From patent US20240158446A1, “CYCLIC COMPOUND HAVING SELECTIVE INHIBITORY ACTION ON KRAS OVER HRAS AND NRAS” (CHUGAI SEIYAKU KABUSHIKI KAISHA, priority 2021, published 2024)
